Measured values taken from paper PMC11946679 (Toxics, 2025).

What was measured:
[1] = test system: human peripheral blood lymphocytes; assay: CBMN cytome assay: micronuclei, nuclear buds, nucleoplasmic bridges; settings: 3 h
Method: The CBMN assay was performed in line with standard protocols [8, 23].
To collect the blood sample, lithium heparin-coated tubes were used (BD vacutainer® with LH 170 I.U., Becton Dickinson: BD-Plymouth PL6 78P, UK).
There were 15 experimental groups altogether. The same experimental design was applied in two independent trials, each of which had two replicate cultures per experimental group; therefore, four replicate cultures for every single experimental group were established.
To induce cell division prior to exposure to the test chemicals, lymphocytes were stimulated with the mitogen phytohemagglutinin (PHA). Cultures were kept in a humidified atmosphere of 5% CO2 at 37 °C.
They started 41 h after PHA stimulation and lasted for 3 h at 37 °C.
Upon completion of exposure, lymphocyte cultures were centrifuged at 100× g. […] This procedure was timed for the 44th hour of lymphocyte cultivation, which represents a critical point for adding of cytoB to hinder cytokinesis and obtain binucleated cells. All treated and control cultures were further maintained at 37 °C until the end of the 72nd hour of cultivation, according to the above-mentioned standard protocols.
The first step in the preparation of microscopic slides was harvesting of cells by centrifugation (100× g), followed by treatment with 0.075 mol/L potassium chloride and succeeded by centrifugation. The sediments of cells were repeatedly fixed with methanol/acetic acid (3:1 v/v) followed by centrifugation. The final lymphocyte suspension was pipetted onto clean microscope slides. For staining, 5% aqueous solution of Giemsa dye was used. Slides were screened using a light microscope at 1000× magnification. For morphological discrimination of micronuclei (MNi), nuclear buds (NBs), nucleoplasmic bridges (NPBs) and cells in apoptosis or necrosis, the criteria by Fenech et al. [25] and Fenech [23] were applied. To determine their frequencies, per experimental point, a total of 4 × 1000 binucleated (BN) cells were scored.
This value was first used to estimate the number of MNi required to reach a decrease and an increase considered significant at a 5% significance level.

[2] = test system: human peripheral blood lymphocytes; assay: CBMN cytome assay: lymphocyte proliferation (M1-M4, CBPI, RI); type: cell-based; settings: 3 h
Method: On the same slides, parameters of cell proliferation and cytotoxicity were also evaluated, in line with the OECD protocol.

[3] = 5× alone, propolis 6.8 mg/L, galangin […]
[4] = 10× + IRI 9.0 mg/L, propolis 13.6 mg/L, galangin 0.22 mg/L
[5] = 10× alone, propolis 13.6 mg/L, galangin 0.22 mg/L
[6] = 1× + IRI 9.0 mg/L, propolis 1.36 mg/L, galangin 0.02 mg/L
[7] = 1× alone, propolis 1.36 mg/L, galangin 0.02 mg/L
[8] = 5× + IRI 9.0 mg/L, propolis 6.8 mg/L, galangin […]

O=c1c(O)c(-c2ccccc2)oc2cc(O)cc(O)c12 [Galangin]
Nucleoplasmic Bridges (NPBs) Mean (NPBs)1000 ± SD [1, 3]: 0 | Nucleoplasmic Bridges (NPBs) Total (BNNPB)4000 [1, 3]: 0 | Nucleoplasmic Bridges (NPBs) Total (NPBs)4000 [1, 3]: 0 | Micronuclei (MNi) Mean (MNi)1000 ± SD ([1]; 5× alone, propolis 6.8 mg/L, galangin […], listed as galangin): 2.25 | Distribution of BNMN Cells with 1 MN [1, 4]: 44 c,p1,p5, p10,g1,g5, g10,p1+iri, p5+iri, p10+iri | Distribution of BNMN Cells with 2 MN [1, 4]: 5 | Distribution of BNMN Cells with 3 MN [1, 4]: 0 | Distribution of BNMN Cells with 4 MN [1, 4]: 0 | Distribution of BNNB Cells with 1 NB [1, 4]: 30 c,p1,p5, p10,g1,g5,g10, p1+iri | Distribution of BNNB Cells with 2 NB [1, 4]: 0 | Distribution of BNNPB Cells with 1 NPB [1, 4]: 0 | Distribution of BNNPB Cells with 2 NPB [1, 4]: 0 | Micronuclei (MNi) Mean (BNMN)1000 ± SD [1, 4]: 12.25 ± 0.82 c,p1,p5,p10,g1,g5, g10,p1+iri, p5+iri, p10+iri | Micronuclei (MNi) Mean (MNi)1000 ± SD [1, 4]: 13.50 ± 1.29 c,p1,p5,p10,g1,g5,g10, p1+iri, p5+iri, p10+iri | Micronuclei (MNi) Total (BNMN)4000 [1, 4]: 49 c,p1,p5,p10,g1,g5,g10, p1+iri, p5+iri, p10+iri | Micronuclei (MNi) Total (MNi)4000 [1, 4]: 54 c,p1,p5,p10,g1,g5, g10,p1+iri, p5+iri, p10+iri | Nuclear Buds (NBs) Mean (BNNB)1000 ± SD [1, 4]: 7.50 ± 1.29 c,p1,p5,p10, g1,g5,g10, p1+iri | Nuclear Buds (NBs) Mean (NBs)1000 ± SD [1, 4]: 7.50 ± 1.29 c,p1,p5,p10,g1,g5,g10,p1+iri | Nuclear Buds (NBs) Total (BNNB)4000 [1, 4]: 30 c,p1,p5,p10, g1,g5,g10, p1+iri | Nuclear Buds (NBs) Total (NBs)4000 [1, 4]: 30 c,p1,p5, p10,g1,g5, g10,p1+iri | Nucleoplasmic Bridges (NPBs) Mean (BNNPB)1000 ± SD [1, 4]: 0 | Nucleoplasmic Bridges (NPBs) Mean (NPBs)1000 ± SD [1, 4]: 0 | Nucleoplasmic Bridges (NPBs) Total (BNNPB)4000 [1, 4]: 0 | Nucleoplasmic Bridges (NPBs) Total (NPBs)4000 [1, 4]: 0 | Micronuclei (MNi) Mean (MNi)1000 ± SD ([1]; 10× + IRI 9.0 mg/L, propolis 13.6 mg/L, galangin 0.22 mg/L, listed as galangin): 13.50 | Distribution of BNMN Cells with 1 MN [1, 5]: 7 | Distribution of BNMN Cells with 2 MN [1, 5]: 0 | Distribution of BNMN Cells with 3 MN [1, 5]: 0 | Distribution of BNMN Cells with 4 MN [1, 5]: 0 | Distribution of BNNB Cells with 1 NB [1, 5]: 9 | Distribution of BNNB Cells with 2 NB [1, 5]: 0 | Distribution of BNNPB Cells with 1 NPB [1, 5]: 0 | Distribution of BNNPB Cells with 2 NPB [1, 5]: 0 | Micronuclei (MNi) Mean (BNMN)1000 ± SD [1, 5]: 1.75 ± 0.50 | Micronuclei (MNi) Mean (MNi)1000 ± SD [1, 5]: 1.75 ± 0.50 | Micronuclei (MNi) Total (BNMN)4000 [1, 5]: 7 | Micronuclei (MNi) Total (MNi)4000 [1, 5]: 7 | Nuclear Buds (NBs) Mean (BNNB)1000 ± SD [1, 5]: 2.25 ± 0.50 | Nuclear Buds (NBs) Mean (NBs)1000 ± SD [1, 5]: 2.25 ± 0.50 | Nuclear Buds (NBs) Total (BNNB)4000 [1, 5]: 9 | Nuclear Buds (NBs) Total (NBs)4000 [1, 5]: 9 | Nucleoplasmic Bridges (NPBs) Mean (BNNPB)1000 ± SD [1, 5]: 0 | Nucleoplasmic Bridges (NPBs) Mean (NPBs)1000 ± SD [1, 5]: 0 | Nucleoplasmic Bridges (NPBs) Total (BNNPB)4000 [1, 5]: 0 | Nucleoplasmic Bridges (NPBs) Total (NPBs)4000 [1, 5]: 0 | Micronuclei (MNi) Mean (MNi)1000 ± SD ([1]; 10× alone, propolis 13.6 mg/L, galangin 0.22 mg/L, listed as galangin): 1.75 | % of Cells with 1 to 4 Nuclei M1 [2, 6]: 24.5 ^↑L % | % of Cells with 1 to 4 Nuclei M2 [2, 6]: 72.3 ^H % | % of Cells with 1 to 4 Nuclei M3 [2, 6]: 1.4 ^↓ % | % of Cells with 1 to 4 Nuclei M4 [2, 6]: 1.8 ^↓ % | CBPI [2, 6]: 1.788 | Replication Index (%) [2, 6]: 80.1% | % of Cells with 1 to 4 Nuclei M1 [2, 7]: 13.4% | % of Cells with 1 to 4 Nuclei M2 [2, 7]: 74.7% | % of Cells with 1 to 4 Nuclei M3 [2, 7]: 4.0% | % of Cells with 1 to 4 Nuclei M4 [2, 7]: 7.9% | CBPI [2, 7]: 1.986 | Replication Index (%) [2, 7]: 100.3% | % of Cells with 1 to 4 Nuclei M1 [2, 8]: 22.6 ^↑L % | % of Cells with 1 to 4 Nuclei M2 [2, 8]: 74.2 ^H % | % of Cells with 1 to 4 Nuclei M3 [2, 8]: 1.6 ^↓ % | % of Cells with 1 to 4 Nuclei M4 [2, 8]: 1.6 ^↓ % | CBPI [2, 8]: 1.806 | Replication Index (%) [2, 8]: 82.0% | % of Cells with 1 to 4 Nuclei M1 [2, 3]: 13.3% | % of Cells with 1 to 4 Nuclei M2 [2, 3]: 76.9 ^↑ % | % of Cells with 1 to 4 Nuclei M3 [2, 3]: 3.3 ^↓ % | % of Cells with 1 to 4 Nuclei M4 [2, 3]: 6.5% | CBPI [2, 3]: 1.967 | Replication Index (%) [2, 3]: 98.3% | % of Cells with 1 to 4 Nuclei M1 [2, 4]: 23.1 ^↑L % | % of Cells with 1 to 4 Nuclei M2 [2, 4]: 74.6 ^H % | % of Cells with 1 to 4 Nuclei M3 [2, 4]: 1.0 ^↓L % | % of Cells with 1 to 4 Nuclei M4 [2, 4]: 1.3 ^↓ % | CBPI [2, 4]: 1.792 | Replication Index (%) [2, 4]: 80.5% | % of Cells with 1 to 4 Nuclei M1 [2, 5]: 10.8 ^↓ % | % of Cells with 1 to 4 Nuclei M2 [2, 5]: 79.0 ^↑ % | % of Cells with 1 to 4 Nuclei M3 [2, 5]: 4.0% | % of Cells with 1 to 4 Nuclei M4 [2, 5]: 6.2% | CBPI [2, 5]: 1.995 | Replication Index (%) [2, 5]: 101.2%
